Reference: patent publication US8217073B2, “Pyrrole derivatives as therapeutic compounds” (Myrexis, Inc., priority 2005, dated 2012)
Several values for one entry are separate records, joined by “and”; a condition that tells them apart may be missing. Equal values may be shown once.

Experiments:
Aβ40 secretion = Aβ40 secretion by H4 cells expressing APP695, sandwich ELISA; assay type: cell-based, human; conditions: medium collected at 24 or 48 hours, several numbers = independent sets of assays; for IC50: about 1 μM to about 100 μM; for inhibition at 100 µM / % Inhibition of Aβ40 Secretion @ 100 μM: test compound 100 μM vs DMSO control
Procedure: (§1) The present invention provides compositions and methods for lowering Aβ42 levels. To test whether compounds and compositions are capable of modulating Aβ levels in cultured cells, sandwich enzyme-linked immunosorbent assays (ELISAs) are employed to measure secreted Aβ (Aβ42 and/or Aβ40 levels). In this example, H4 cells expressing wide type APP695 are seeded at 200,000 cells per well in 6 well plates, and incubated at 37° C. with 5% CO2 overnight. Cells are treated with 1.5 ml medium containing vehicle (DMSO) or a test compound at 1.25 μM, 2.5 μM, 5.0 μM and 10.0 μM (as well as other concentration if desirable) for 24 hours or 48 hours. The supernatant from treated cells is collected into eppendorf tubes and frozen at −80° C. for future analysis.
(§2) The amyloid peptide standard is reconstituted and frozen samples are thawed. The samples and standards are diluted with appropriate diluents and the plate is washed 4 times with Working Wash Buffer and patted dry on a paper towel. 100 μL per well of peptide standards, controls, and dilutions of samples to be analyzed is added. The plate is incubated for 2 hours while shaking on an orbital plate shaker at RT. The plate is then washed 4 times with Working Wash Buffer and patted dry on a paper towel. Detection Antibody Solution is poured into a reservoir and 100 μL/well of Detection Antibody Solution is immediately added to the plate. The plate is incubated at RT for 2 hours while shaking and then washed four times with Working Wash Buffer and patted dry on a paper towel. Secondary Antibody Solution is then poured into a reservoir and 100 μL/well of Secondary Antibody Solution is immediately added to the plate. The plate is incubated at RT for 2 hours with shaking, washed 5 times with Working Wash Buffer, and patted dry on a paper towel.
(§3) 100 μL of stabilized chromogen is added to each well and the liquid in the wells begins to turn blue. The plate is incubated for 30 minutes at room temperature and in the dark. 100 μL of stop solution is added to each well and the plate is tapped gently to mix resulting in a change of solution color from blue to yellow. The absorbance of each well is read at 450 nm having blanked the plate reader against a chromogen blank composed of 100 μL each of stabilized chromogen and stop solution. The plate is read within 2 hours of adding the stop solution. The absorbance of the standards is plotted against the standard concentration and the concentrations of unknown samples and controls are calculated.
(§4) The present invention provides compositions and methods for lowering Aβ42 levels. To test whether compounds and compositions are capable of modulating Aβ levels, sandwich enzyme-linked immunosorbent assays (ELISAs) is employed to measure secreted Aβ42 and/or Aβ40 levels. In this example, H4 cells expressing wide type APP695 are seeded at 200,000 cells per well in 6 well plates, and incubated at 37° C. with 5% CO2 overnight. Cells are treated with 1.5 mL medium containing vehicle (DMSO) or a test compound at 1.25 μM, 2.5 μM, 5.0 μM and 10.0 μM concentration for 24 hours or 48 hours. The supernatant from treated cells is collected into eppendorf tubes and frozen at −80° C. for future analysis.
(§5) 130 μL per well of samples, standards, and blanks is added to a 96-well polypropylene plate. […] of samples, standards, and blanks from the polypropylene plate is added to the antibody-coated plates. The strip-holder with the appropriate number of strips is applied to the antibody-coated plates and the strips are covered with an adhesive sealer. The plate is then incubated 3 hours at room temperature while shaking on an orbital plate shaker.
(§6) The first antibody solution is prepared with Conjugate Diluent 1 at 1:100 ratio. Each well of the antibody-coated plates is washed 5 times with 400 μL washing solution and 100 μL of the prepared first antibody solution is added to each well. […]

Aβ42 secretion = Aβ42 secretion by H4 cells expressing APP695, sandwich ELISA; assay type: cell-based, human; conditions: medium collected at 24 or 48 hours, several numbers = independent sets of assays; for IC50: about 1 μM to about 100 μM; for inhibition at 100 µM / % Inhibition of Aβ42 Secretion @ 100 μM: test compound 100 μM vs DMSO control
Procedure: as §1, §2, §3, §4, §5, §6

Compound: O=C(O)c1cccc(-n2c(-c3ccccc3)cc(-c3ccccc3)c2C2CC2)c1 [Compound 33, 3-(2-Cyclopropyl-3,5-diphenyl-pyrrol-1-yl)-benzoic acid]
- IC50 (Aβ40 secretion; Homo sapiens): 74 µM
- inhibition at 100 µM (Aβ40 secretion; Homo sapiens): 73%
- IC50 (Aβ40 secretion): 79 µM
- % Inhibition of Aβ40 Secretion @ 100 μM (Aβ40 secretion): 73, 73%
- IC50 (Aβ42 secretion; Homo sapiens): 21 µM
- inhibition at 100 µM (Aβ42 secretion; Homo sapiens): 89%
- IC50 (Aβ42 secretion): 24 µM
- % Inhibition of Aβ42 Secretion @ 100 μM (Aβ42 secretion): 86%

Compound: CC(C)(C)Cc1c(-c2ccccc2)cc(-c2ccccc2)n1-c1cccc(C(=O)O)c1 [Compound 36, 3-[2-(2,2-Dimethyl-propyl)-3,5-diphenyl-pyrrol-1-yl]-benzoic acid]
- IC50 (Aβ40 secretion; Homo sapiens): 29 µM
- inhibition at 100 µM (Aβ40 secretion; Homo sapiens): 103%
- IC50 (Aβ40 secretion): 19 µM
- % Inhibition of Aβ40 Secretion @ 100 μM (Aβ40 secretion): 96%
- IC50 (Aβ42 secretion; Homo sapiens): 8 µM
- inhibition at 100 µM (Aβ42 secretion; Homo sapiens): 99%
- IC50 (Aβ42 secretion): 7 µM
- % Inhibition of Aβ42 Secretion @ 100 μM (Aβ42 secretion): 101%

Compound: CC(C)c1c(-c2ccccc2)cc(-c2ccccc2)n1-c1ccc(CCCC(=O)O)cc1 [Compound 32, 4-[4-(2-Isopropyl-3,5-diphenyl-pyrrol-1-yl)-phenyl]-butyric acid]
- IC50 (Aβ40 secretion; Homo sapiens): 41 µM
- inhibition at 100 µM (Aβ40 secretion; Homo sapiens): 103%
- IC50 (Aβ42 secretion; Homo sapiens): 22 µM
- inhibition at 100 µM (Aβ42 secretion; Homo sapiens): 98%

Compound: O=C(O)CCCc1ccc(-n2cc(-c3ccccc3)cc2-c2ccccc2)cc1 [Compound 7, 4-[4-(2,4-Diphenyl-pyrrol-1-yl)-phenyl]-butyric acid]
- IC50 (Aβ40 secretion; Homo sapiens): > 100 µM
- inhibition at 100 µM (Aβ40 secretion; Homo sapiens): 7%
- IC50 (Aβ42 secretion; Homo sapiens): 52 µM
- inhibition at 100 µM (Aβ42 secretion; Homo sapiens): 76%

Compound: Cc1c(-c2cccc(C(F)(F)F)c2)cc(-c2ccccc2)n1-c1cccc(C(=O)O)c1 [Compound 8, 3-[2-Methyl-5-phenyl-3-(3-trifluoromethyl-phenyl)-pyrrol-1-yl]-benzoic acid]
- % Inhibition of Aβ40 Secretion @ 100 μM (Aβ40 secretion): 88% and 64%
- inhibition at 100 µM (Aβ42 secretion; Homo sapiens): 94%
- % Inhibition of Aβ42 Secretion @ 100 μM (Aβ42 secretion): 80%

Compound: Cc1c(-c2ccccc2)cc(-c2ccc(Cl)c(Cl)c2)n1-c1cccc(C(=O)O)c1 [Compound 17, 3-[5-(3,4-Dichloro-phenyl)-2-methyl-3-phenyl-pyrrol-1-yl]-benzoic acid]
- IC50 (Aβ40 secretion; Homo sapiens): > 100 µM
- inhibition at 100 µM (Aβ40 secretion; Homo sapiens): 10%
- IC50 (Aβ42 secretion; Homo sapiens): 10 µM
- inhibition at 100 µM (Aβ42 secretion; Homo sapiens): 83%

Compound: Cc1c(-c2ccccc2)cc(-c2ccccc2)n1-c1ccc(C(=O)O)cc1 [Compound 39, 4-(2-Methyl-3,5-diphenyl-pyrrol-1-yl)-benzoic acid]
- IC50 (Aβ40 secretion; Homo sapiens): 54 µM
- inhibition at 100 µM (Aβ40 secretion; Homo sapiens): 92%
- IC50 (Aβ42 secretion; Homo sapiens): 50 µM
- inhibition at 100 µM (Aβ42 secretion; Homo sapiens): 86%

Compound: Cc1c(-c2ccccc2)cc(-c2ccccc2)n1-c1cccc(C(=O)O)c1 [Compound 2, 3-(2-Methyl-3,5-diphenyl-pyrrol-1-yl)-benzoic acid]
- IC50 (Aβ40 secretion; Homo sapiens): > 100 µM
- inhibition at 100 µM (Aβ40 secretion; Homo sapiens): 36%
- IC50 (Aβ42 secretion; Homo sapiens): 48 µM
- inhibition at 100 µM (Aβ42 secretion; Homo sapiens): 76%

Compound: Cc1c(-c2ccccc2)cc(-c2ccc(C(F)(F)F)cc2)n1-c1cccc(C(=O)O)c1 [Compound 14, 3-[2-Methyl-3-phenyl-5-(4-trifluoromethyl-phenyl)-pyrrol-1-yl]-benzoic acid]
- inhibition at 100 µM (Aβ42 secretion; Homo sapiens): 96%
- % Inhibition of Aβ42 Secretion @ 100 μM (Aβ42 secretion): 101% and 99% and 92%

Compound: CC(C)(C)Cc1c(-c2ccccc2)cc(-c2ccccc2)n1-c1ccc(CCCC(=O)O)cc1 [Compound 38, 4-{4-[2-(2,2-Dimethyl-propyl)-3,5-diphenyl-pyrrol-1-yl]-phenyl}-butyric acid]
- IC50 (Aβ40 secretion; Homo sapiens): 63 µM
- inhibition at 100 µM (Aβ40 secretion; Homo sapiens): 88%
- IC50 (Aβ40 secretion): 37 µM
- % Inhibition of Aβ40 Secretion @ 100 μM (Aβ40 secretion): 104%
- IC50 (Aβ42 secretion; Homo sapiens): 10 µM
- inhibition at 100 µM (Aβ42 secretion; Homo sapiens): 94%
- IC50 (Aβ42 secretion): 7 µM
- % Inhibition of Aβ42 Secretion @ 100 μM (Aβ42 secretion): 101%

Compound: CCc1c(-c2ccccc2)cc(-c2ccccc2)n1-c1cccc(C(=O)O)c1 [Compound 11, 3-(2-Ethyl-3,5-diphenyl-pyrrol-1-yl)-benzoic acid]
- IC50 (Aβ40 secretion; Homo sapiens): > 100 µM
- IC50 (Aβ40 secretion): 69 µM and 68 µM
- inhibition at 100 µM (Aβ42 secretion; Homo sapiens): 92%
- % Inhibition of Aβ42 Secretion @ 100 μM (Aβ42 secretion): 94% and 78%

Compound: O=C(O)c1cccc(-n2c(CCc3ccccc3)ccc2-c2ccccc2)c1 [Compound 23, 3-(2-Phenethyl-5-phenyl-pyrrol-1-yl)-benzoic acid]
- IC50 (Aβ40 secretion; Homo sapiens): 70 µM
- inhibition at 100 µM (Aβ40 secretion; Homo sapiens): 67%
- IC50 (Aβ42 secretion; Homo sapiens): 23 µM
- inhibition at 100 µM (Aβ42 secretion; Homo sapiens): 77%

Compound: Cc1c(-c2ccccc2)cc(-c2ccccc2)n1-c1cccc(OCC(=O)O)c1 [Compound 26, [3-(2-Methyl-3,5-diphenyl-pyrrol-1-yl)-phenoxy]-acetic acid]
- IC50 (Aβ40 secretion; Homo sapiens): 42 µM
- inhibition at 100 µM (Aβ40 secretion; Homo sapiens): 94%
- IC50 (Aβ42 secretion; Homo sapiens): 21 µM
- inhibition at 100 µM (Aβ42 secretion; Homo sapiens): 147%

Compound: Cc1c(-c2ccccc2)cc(-c2ccc(Cl)c(Cl)c2)n1-c1cccc(CCC(=O)O)c1 [Compound 18, 3-{3-[5-(3,4-Dichloro-phenyl)-2-methyl-3-phenyl-pyrrol-1-yl]-phenyl}-propionic acid]
- IC50 (Aβ40 secretion; Homo sapiens): > 100 µM
- inhibition at 100 µM (Aβ40 secretion; Homo sapiens): 41%
- IC50 (Aβ42 secretion; Homo sapiens): 10 µM
- inhibition at 100 µM (Aβ42 secretion; Homo sapiens): 94%

Compound: CCOC(=O)c1cc(CCc2ccccc2)n(-c2cccc(C(=O)O)c2)c1-c1ccccc1 [Compound 20, 1-(3-Carboxy-phenyl)-5-phenethyl-2-phenyl-1H-pyrrole-3-carboxylic acid ethyl ester]
- IC50 (Aβ40 secretion; Homo sapiens): > 100 µM
- inhibition at 100 µM (Aβ40 secretion; Homo sapiens): 49%
- IC50 (Aβ42 secretion; Homo sapiens): 21 µM
- inhibition at 100 µM (Aβ42 secretion; Homo sapiens): 95%

Compound: O=C(O)CCCc1ccc(-n2c(CCc3ccccc3)ccc2-c2ccccc2)cc1 [Compound 25, 4-[4-(2-Phenethyl-5-phenyl-pyrrol-1-yl)-phenyl]-butyric acid]
- IC50 (Aβ40 secretion; Homo sapiens): > 100 µM
- inhibition at 100 µM (Aβ40 secretion; Homo sapiens): 30%
- IC50 (Aβ42 secretion; Homo sapiens): > 100 µM
- inhibition at 100 µM (Aβ42 secretion; Homo sapiens): 40%

Compound: Cc1c(-c2ccccc2)cc(-c2ccccc2)n1-c1ccc(OCCC(=O)O)cc1 [Compound 28, 3-[4-(2-Methyl-3,5-diphenyl-pyrrol-1-yl)-phenoxy]-propionic acid]
- IC50 (Aβ40 secretion; Homo sapiens): > 32 µM
- inhibition at 100 µM (Aβ40 secretion; Homo sapiens): 32%
- IC50 (Aβ42 secretion; Homo sapiens): 80 µM
- inhibition at 100 µM (Aβ42 secretion; Homo sapiens): 55%

Compound: CCc1c(-c2ccccc2)cc(-c2ccccc2)n1-c1cccc(CCC(=O)O)c1 [Compound 12, 3-[3-(2-Ethyl-3,5-diphenyl-pyrrol-1-yl)-phenyl]-propionic acid]
- IC50 (Aβ40 secretion; Homo sapiens): > 100 µM
- inhibition at 100 µM (Aβ40 secretion; Homo sapiens): 27%
- IC50 (Aβ42 secretion; Homo sapiens): 34 µM
- inhibition at 100 µM (Aβ42 secretion; Homo sapiens): 85%

Compound: Cc1c(-c2ccccc2)cc(-c2ccccc2)n1-c1ccc(Cl)c(C(=O)O)c1 [Compound 3, 2-Chloro-5-(2-methyl-3,5-diphenyl-pyrrol-1-yl)-benzoic acid]
- IC50 (Aβ40 secretion; Homo sapiens): 98 µM
- inhibition at 100 µM (Aβ40 secretion; Homo sapiens): 52%
- IC50 (Aβ42 secretion; Homo sapiens): 37 µM
- inhibition at 100 µM (Aβ42 secretion; Homo sapiens): 89%

Compound: Cc1c(-c2ccccc2)cc(-c2ccc(C(F)(F)F)cc2)n1-c1cccc(CCC(=O)O)c1 [Compound 15, 3-{3-[2-Methyl-3-phenyl-5-(4-trifluoromethyl-phenyl)-pyrrol-1-yl]-phenyl}-propionic acid]
- IC50 (Aβ40 secretion; Homo sapiens): 82 µM
- inhibition at 100 µM (Aβ40 secretion; Homo sapiens): 63%
- IC50 (Aβ42 secretion; Homo sapiens): 21 µM
- inhibition at 100 µM (Aβ42 secretion; Homo sapiens): 96%

Compound: Cc1c(-c2ccccc2)cc(-c2ccccc2)n1-c1ccc(CCCC(=O)O)cc1 [Compound 1, 4-[4-(2-Methyl-3,5-diphenyl-pyrrol-1-yl)-phenyl]-butyric acid]
- IC50 (Aβ40 secretion; Homo sapiens): > 100 µM
- IC50 (Aβ40 secretion): 67 µM
- % Inhibition of Aβ42 Secretion @ 100 μM (Aβ42 secretion): 101% and 99% and 78%

Compound: CCOC(=O)c1cc(CCc2ccccc2)n(-c2cccc(CCC(=O)O)c2)c1-c1ccccc1 [Compound 21, 1-[3-(2-Carboxy-ethyl)-phenyl]-5-phenethyl-2-phenyl-1H-pyrrole-3-carboxylic acid ethyl ester]
- IC50 (Aβ40 secretion; Homo sapiens): > 100 µM
- inhibition at 100 µM (Aβ40 secretion; Homo sapiens): 38%
- IC50 (Aβ42 secretion; Homo sapiens): 55 µM
- inhibition at 100 µM (Aβ42 secretion; Homo sapiens): 66%
